These results are taken from US9107909B2, “Materials and methods to enhance hematopoietic stem cells engraftment procedures” (priority 2008, dated 2015).

One test relates to UCB CD34+ cells. Nature of the test: Migration of human UCB CD34+ cells to rhSDF-1. The format is cell-based. Conditions: pulse exposure. On the procedure: Freshly isolated UCB CD34^+ cells were pulsed with dmPGE2 or vehicle for 2 hours, washed and resuspended in media with 10% HI-FCS and cultured at 37° C. for 16 hours. After incubation, cells were washed, resuspended in RPMI/0.5% BSA and migration to rhSDF-1 measured by flow cytometry. To block the CXCR4 receptor, replicate cells were incubated with 5 micrograms/ml AMD3100 for 30 minutes prior to the migration assay. Referring now to FIG. 10, the data are the Mean±SEM percentage migration for 3 experiments.

Test [1] relates to SKL cells. Nature of the test: Apoptosis assay (Annexin-V+ SKL cells). The format is cell-based, mouse. The note with it: for apoptosis of SKL cells in vitro: 0.1 nanoMolar-1 microMolar. On the procedure:
Lin^neg cells were treated on ice with 0.1 nanoMolar to 1 microMolar dmPGE2 or vehicle control, washed and incubated in RPMI-1640+2% FBS, without growth factors at 37° C. to induce apoptosis. After 24 hours, cells were stained for SKL and Annexin-V and the proportion of Annexin-V^+ SKL cells was determined by FACS.
Apoptosis is an important regulatory process in normal and malignant hematopoiesis and PGE2 has been implicated in anti-apoptotic signalling. Moreover, activation of cAMP, a downstream signaling molecule of EP receptors, inhibits apoptosis in CD34^+ cells. […] To evaluate an effect of dmPGE2 on HSPC survival, Lin^neg cells were pulsed with 0.1 nanoMolar-1 microMolar dmPGE2 or vehicle and cultured in serum-reduced culture medium without growth factors.

The subject of test [2] is SKL cells. Nature of the test: Transwell migration of murine SKL cells to rmSDF-1α. The format is cell-based, mouse. Conditions: pulsed 2 hours, cultured 16 hours, migration 4 hours; vs vehicle. On the procedure: Freshly isolated Lineage^neg mouse bone marrow cells were pulsed with dmPGE2 or vehicle for 2 hours, washed and resuspended in media with 10% HI-FCS and cultured at 37° C. for 16 hours. After incubation, cells were washed, resuspended in RPMI/0.5% BSA and allowed to migrate in transwells to rmSDF-1α for 4 hours. Total cell migration was measured by flow cytometry. Referring now to FIG. 9, total SKL cell migration was higher for cells pulsed with dmPGE2. Data are the Mean±SEM percent migration for 3 experiments. ^†P<0.05 for dmPGE2 treated cells compared to cells treated with vehicle.

Test [3] deals with Survivin in CD34+ UCB cells. Nature of the test: Intracellular Survivin by FACS, human CD34+ UCB cells. The class given is cell-based. The note with it: 24 hours post-pulse, vs control. An excerpt: All antibodies were purchased from BD Biosciences unless otherwise noted. For detection and sorting of murine KL and SKL cells, streptavidin conjugated with PE-Cy7 (to stain for biotinylated MACS lineage antibodies (Miltenyi Biotech, Auburn, Calif.)), c-kit-APC, Sca-1-PE or APC-Cy7, CD45. 1-PE and CD45.2-FITC were used. UCB CD34^+ cells were detected using anti-human-CD34-APC. For multilineage analysis, APC-Cy7-Mac-1, PE-Cy7-B-220 and APC-CD3 were used. EP receptors were detected with anti EP1, EP2, EP3 and EP4 rabbit IgG (Cayman Chemicals) and secondary staining with FITC-goat-anti-rabbit IgG (Southern Biotech, Birmingham, Ala.). CXCR4 expression was analyzed using streptavidin-PECy7, c-kit-APC, Sca-1-APC-Cy7, and CXCR4-PE. Apoptosis was measured with FITC-Annexin-V. For Survivin and active caspase-3 detection, cells were permeabilized and fixed using the CytoFix/CytoPerm kit (BD) and stained with anti-active-caspase-3-FITC Flow Kit (BD) or Survivin-PE (R&D Systems).
Expression of EP receptors, CXCR4 and Survivin Replicate Lin^neg cell samples from CD45.2 mice were stained for SKL and each of the EP receptors and surface receptor expression on KL and SKL cells determined by FACS. […] Replicate cells were stained for CD34 and each of the EP receptors and surface expression determined by FACS. […]

On to `CCCCC[C@H](O)/C=C/[C@H]1[C@H](O)CC(=O)[C@@H]1C/C=C\CCCC(=O)O` [PGE2, Prostaglandin E2], for which, in the test on UCB CD34+ cells, the “migration of human CD34+ cells to SDF-1α” value is “Increases Migration”. The “apoptosis of SKL cells in vitro” value in the test with SKL cells [1] was “dose-dependently decreased apoptosis”.

For `CCCCC(C)(C)[C@H](O)/C=C/[C@H]1[C@H](O)CC(=O)[C@@H]1C/C=C\CCCC(=O)O` [dmPGE2, 16,16-dimethyl prostaglandin E2], in the test with SKL cells [2], the “total SKL cell migration to rmSDF-1α” value was “higher”. Moreover, in test [3], the “increase in intracellular Survivin, CD34+ UCB cells” value came to 2.4 fold. For the same molecule, in the test on SKL cells [1], the “apoptosis of SKL cells in vitro” value is “reduced apoptosis in SKL cells in a dose dependent fashion”. In addition, the “inhibition of apoptosis in SKL cells” value in the test on SKL cells [1] (at 1 microMolar, serum-reduced medium without growth factors, 24 hours) is listed as around 65%.
